Laboratory results as given in ChEMBL document CHEMBL1201862, “PubChem BioAssay data set” (2004).
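Exposure lasted 48 hours, with cells grown in 96-well plates and compounds tested at five concentrations. Abbreviation: GI50, concentration required for 50% inhibition of growth.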 Active and inactive are the calls of the source. Cut-off read from the data, not from the text of the source: active = GI50 up to about 1.1 µM and inactive = higher.

Experiments:
Assay in all cases: NCI anticancer screen, dose series, 48 h
[1] = tested on: IGROV-1
[2] = tested on: SK-MEL-2
[3] = tested on: HT-29
[4] = tested on: NCI-H522
[5] = tested on: Hs-578T
[6] = tested on: UACC-257
[7] = tested on: MOLT-4
[8] = tested on: SK-MEL-28
[9] = tested on: DU-145
[10] = tested on: EKVX
[11] = tested on: LOX IMVI
[12] = tested on: MDA-MB-231
[13] = tested on: SF-268
[14] = tested on: U-251
[15] = tested on: NCI-H23
[16] = tested on: KM12
[17] = tested on: MCF7
[18] = tested on: CCRF-CEM
[19] = tested on: 786-0
[20] = tested on: MDA-N
[21] = tested on: HOP-62
[22] = tested on: NCI-H460
[23] = tested on: SR
[24] = tested on: OVCAR-3
[25] = tested on: ACHN
[26] = tested on: OVCAR-4
[27] = tested on: HCC 2998
[28] = tested on: SNB-19
[29] = tested on: PC-3
[30] = tested on: MDA-MB-435
[31] = tested on: NCI-H226
[32] = tested on: SF-539
[33] = tested on: BT-549
[34] = tested on: Malme-3M
[35] = tested on: SN12C
[36] = tested on: UACC-62
[37] = tested on: HCT-116
[38] = tested on: SW-620
[39] = tested on: RPMI-8226
[40] = tested on: OVCAR-8
[41] = tested on: SK-OV-3
[42] = tested on: OVCAR-5
[43] = tested on: SK-MEL-5
[44] = tested on: TK-10
[45] = tested on: K562
[46] = tested on: HCT-15
[47] = tested on: COLO 205
[48] = tested on: HL-60
[49] = tested on: M14
[50] = tested on: UO-31
[51] = tested on: HOP-92
[52] = tested on: A549
[53] = tested on: T47D
[54] = tested on: SNB-75
[55] = tested on: RXF 393
[56] = tested on: CAKI-1
[57] = tested on: SF-295
[58] = tested on: NCI/ADR-RES

Question: Which GI50 [1] does the source give for `COc1cc(C[C@@]2(C)[C@@H]3CCC[C@H](CO)[C@@]3(C)CC[C@@H]2C)c(Cl)c(OC)c1` here?
Answer: 14.7 µM (inactive)

Question: What about the GI50 [2] of the same molecule?
Answer: 16.8 µM (inactive)

Question: What about the GI50 [3] of the same molecule?
Answer: 13.3 µM (inactive)

Question: And the GI50 [4]?
Answer: 14.7 µM (inactive)

Question: What about the GI50 [5] of the same molecule?
Answer: 21.5 µM (inactive)

Question: What about the GI50 [6] of the same molecule?
Answer: 18.7 µM (inactive)

Question: What about the GI50 [7] of the same molecule?
Answer: 12.1 µM (inactive)

Question: What about the GI50 [8] of the same molecule?
Answer: 26.2 µM (inactive)

Question: And the GI50 [9]?
Answer: 16.4 µM (inactive)

Question: What about the GI50 [10] of the same molecule?
Answer: 14.3 µM (inactive)

Question: What about the GI50 [11] of the same molecule?
Answer: 17.8 µM (inactive)

Question: What about the GI50 [12] of the same molecule?
Answer: 16.4 µM (inactive)

Question: And the GI50 [13]?
Answer: 14.9 µM (inactive)

Question: And the GI50 [14]?
Answer: 15.5 µM (inactive)

Question: And the GI50 [15]?
Answer: 19.6 µM (inactive)

Question: What about the GI50 [16] of the same molecule?
Answer: 18.2 µM (inactive)

Question: And the GI50 [17]?
Answer: 15.5 µM (inactive)

Question: What about the GI50 [18] of the same molecule?
Answer: 29.4 µM (inactive)

Question: What about the GI50 [19] of the same molecule?
Answer: 15.7 µM (inactive)

Question: And the GI50 [20]?
Answer: 15.5 µM (inactive)

Question: And the GI50 [21]?
Answer: 17.1 µM (inactive)

Question: And the GI50 [22]?
Answer: 16.8 µM (inactive)

Question: And the GI50 [23]?
Answer: 16 µM (inactive)

Question: And the GI50 [24]?
Answer: 15.3 µM (inactive)

Question: And the GI50 [25]?
Answer: 16 µM (inactive)

Question: And the GI50 [26]?
Answer: 15.8 µM (inactive)

Question: What about the GI50 [27] of the same molecule?
Answer: 16.1 µM (inactive)

Question: And the GI50 [28]?
Answer: 18.6 µM (inactive)

Question: And the GI50 [29]?
Answer: 14.2 µM (inactive)

Question: What about the GI50 [30] of the same molecule?
Answer: 13.7 µM (inactive)

Question: What about the GI50 [31] of the same molecule?
Answer: 15.8 µM (inactive)

Question: What about the GI50 [32] of the same molecule?
Answer: 14.7 µM (inactive)

Question: What about the GI50 [33] of the same molecule?
Answer: 17.6 µM (inactive)

Question: What about the GI50 [34] of the same molecule?
Answer: 16.2 µM (inactive)

Question: And the GI50 [35]?
Answer: 15.8 µM (inactive)

Question: What about the GI50 [36] of the same molecule?
Answer: 15.3 µM (inactive)

Question: And the GI50 [37]?
Answer: 12.2 µM (inactive)

Question: What about the GI50 [38] of the same molecule?
Answer: 29.2 µM (inactive)

Question: And the GI50 [39]?
Answer: 20.2 µM (inactive)

Question: What about the GI50 [40] of the same molecule?
Answer: 16 µM (inactive)

Question: What about the GI50 [41] of the same molecule?
Answer: 17.5 µM (inactive)

Question: And the GI50 [42]?
Answer: 18.3 µM (inactive)

Question: And the GI50 [43]?
Answer: 17 µM (inactive)

Question: And the GI50 [44]?
Answer: 19.5 µM (inactive)

Question: And the GI50 [45]?
Answer: 16.3 µM (inactive)

Question: What about the GI50 [46] of the same molecule?
Answer: 16.7 µM

Question: And the GI50 [47]?
Answer: 15.3 µM (inactive)

Question: What about the GI50 [48] of the same molecule?
Answer: 17.6 µM (inactive)

Question: And the GI50 [49]?
Answer: 18.3 µM (inactive)

Question: What about the GI50 [50] of the same molecule?
Answer: 16.6 µM (inactive)

Question: And the GI50 [51]?
Answer: 14.5 µM (inactive)

Question: And the GI50 [52]?
Answer: 14.4 µM (inactive)

Question: What about the GI50 [53] of the same molecule?
Answer: 9.53 µM (inactive)

Question: And the GI50 [54]?
Answer: 18 µM (inactive)

Question: And the GI50 [55]?
Answer: 11.6 µM (inactive)

Question: What about the GI50 [56] of the same molecule?
Answer: 16.2 µM (inactive)

Question: And the GI50 [57]?
Answer: 16.3 µM (inactive)

Question: And the GI50 [58]?
Answer: 15.2 µM (inactive)
